Measurements: article PMC9924185, “A validated LC–MS/MS method for clinical pharmacokinetics and presumptive phase II metabolic pathways following oral administration of Andrographis paniculata extract” (Scientific Reports, 2023)
Like-named read-outs stand apart in the source and are kept apart here.

What was measured:
[1] = Cumulative urine excretion after single oral administration of A. paniculata extract; type: in vivo, human
Method: (§1) An aliquot of 50 µL of plasma or urine was placed in a 1.5 mL of polypropylene centrifuge micro-tube. Protein was removed from the sample by adding 200 µL of methanol (containing 50.00 ng/mL of IS). The mixture was vortexed for 10 min and was then centrifuged at 12,000 rpm, 4 °C for 10 min. The supernatant was filtered through a […] PVDF membrane (Chrom Tech) and transferred into a glass insert in a vial before LC‑MS/MS analysis.
(§2) The clinical pharmacokinetic study was designed as an open-labeled, with a single oral dosing, and conducted under a fasting condition. Four healthy subjects were recruited according to the following inclusion criteria: 18—55 years old with a body mass index (BMI) of 18–30 kg/m^2. Study participants were identified as healthy based on laboratory testing and physical examinations. The participants received 3 capsules containing A. paniculata extract (calculated as 60 mg of andrographolide/dose) before breakfast with 240 mL of drinking water. Blood samples, in EDTA tubes, were taken after oral administration at 0, 10, 20, 30, 45 min, and 1, 1.5, 2, 4, 6, 8, 10, 12, 24 h post dose. All blood samples were then centrifuged at 4000 ± 100 rpm, 4 °C for 5 min. Plasma was pipetted and stored in cryotubes at − 80 °C until further analysis. Urine samples were collected during 0–4, 4–8, 8–12, 12–24, 24–32, 32–40 and 40–48 h after dosing and were then kept at − 80 °C before sample extraction.
(§3) Finally, the hydrolysis of glucuronide metabolites in the pharmacokinetic study was performed according to the following process: 50 µL of plasma or urine sample was incubated for 30 min with 50 µL of 1000 U/mL β-glucuronidase in phosphate buffer pH 6.8 (composed of 0.1 M sodium phosphate monobasic and 0.1 M sodium phosphate dibasic) at 37 °C. For the hydrolysis of sulfatase, 50 µL of 100 units/mL of sulfatase in an acetate buffer at pH 5.0 (composed of 0.1 M acetic acid and 0.1 M sodium acetate) was added into 50 µL of sample; the mixture was then incubated at 37 °C for 2 h. The reaction was stopped in all hydrolysis samples with 150 µL of cold methanol, and then protein precipitation was performed prior to LC–MS/MS analysis. However, due to unavailable standard of the conjugated forms (AP-glucuronide and […]). The quantitative analysis of conjugated metabolites was determined after the hydrolysis reaction by enzymatic digestion, and the free form was analyzed without hydrolysis. The conjugated standards of AP-glucuronide or AP-sulfate should be synthesized for determining the exact amount of the glucuronide or sulfate.

[2] = Clinical pharmacokinetics in plasma after single oral administration of A. paniculata extract; type: in vivo, human; conditions: for Cmax / AUC(0-t) / Vd/F / Tmax / half-life: human, parent compound in plasma, single oral dose of extract (60 mg andrographolide); for Cmax: healthy subjects n = 4; for Cmax / AUC(0-t) / Vd/F: mean ± SD; for AUC(0-t) / Vd/F / Tmax / half-life: n = 4; for Tmax / half-life: median
Method: as §1, §2
Pharmacokinetic parameters were determined by non-compartmental analysis using PK solutions software, version 2.0 (Summit Research Services). The maximum concentration of four targeted compounds (Cmax) and the time to reach maximum concentration (Tmax) were taken directly from the individual plasma concentration versus time profiles. The area under the curve from time zero to the last sampling time (AUC0-t) was estimated using the linear trapezoidal rule. The apparent volume of distribution (Vd/F) and the elimination half-life (t1/2) were determined using non-compartmental analysis.
as §3

[3] = plasma
Method: (§4) The stability of plasma and urine samples were evaluated at three different QC concentration levels (LQC, MQC and HQC, n = 3 for each level); the conditions were freeze–thaw stability, long-term stability, short-term stability, and post preparative stability in an autosampler. The evaluation of stability under freeze–thaw condition was carried out over five cycles of − 80 °C for at least 12 h of each cycle. Long-term stability was analyzed after storing the samples at − 80 °C. Short-term stability of each analyte, for up to 8 h during processing on the bench at room temperature, was also evaluated. For evaluation of post-preparative stability, the extracted samples were stored at ambient temperature (4 °C) in an autosampler for 24 h. The analyte was considered as a stable sample when the average percentage of accuracy of the QC sample was in the range of 85–115% and the %CV was not over 15%.

[4] = Stability in urine under different storage conditions; type: physicochemical, human
Method: as §4

[5] = Freeze–thaw stability 5 cycles, 2.50 ng/mL (LQC)
[6] = Freeze–thaw stability 5 cycles, 500.00 ng/mL (MQC)
[7] = Freeze–thaw stability 5 cycles, 900.00 ng/mL (HQC)
[8] = Long term stability 3 months at − 80 °C, 2.50 ng/mL (LQC)
[9] = Long term stability 3 months at − 80 °C, 500.00 ng/mL (MQC)
[10] = Long term stability 3 months at − 80 °C, 900.00 ng/mL (HQC)
[11] = Post preparative stability 24 h at autosampler, 2.50 ng/mL (LQC)
[12] = Post preparative stability 24 h at autosampler, 500.00 ng/mL (MQC)
[13] = Post preparative stability 24 h at autosampler, 900.00 ng/mL (HQC)
[14] = Short term stability 8 h at room temperature, 2.50 ng/mL (LQC)
[15] = Short term stability 8 h at room temperature, 500.00 ng/mL (MQC)
[16] = Short term stability 8 h at room temperature, 900.00 ng/mL (HQC)

## C=C1CC[C@@H]2[C@](C)(CO[C@@H]3O[C@H](CO)[C@@H](O)[C@H](O)[C@H]3O)CCC[C@@]2(C)[C@@H]1CCC1=CCOC1=O [AP4, neoandrographolide]
[1]
  Conjugated metabolites in the urine: negligible
  Route of excretion: primarily excreted renally
[2]
  Cmax: 22.4 ± 5.87 ng/mL
  AUC(0-t): 44.1 ± 7.48 ng·h/mL
  Vd/F: 0.65 ± 0.13 L/kg
  Tmax: 1.5 h
  half-life: 0.22 h
[2]; parent compound, single oral dose of extract
  Amount detected in plasma: only very small amounts
[2]; single oral dose of extract
  Conjugated metabolites in plasma: negligible
[3]; [5]
  %Accuracy: 99.77%
  Measured concentration: 2.49 ± 0.14 ng/mL
[3]; [6]
  %Accuracy: 94.01%
  Measured concentration: 470.07 ± 13.89 ng/mL
[3]; [7]
  %Accuracy: 100.73%
  Measured concentration: 906.60 ± 9.37 ng/mL
[3]; [8]
  %Accuracy: 93.19%
  Measured concentration: 2.33 ± 0.12 ng/mL
[3]; [9]
  %Accuracy: 94.65%
  Measured concentration: 473.25 ± 26.27 ng/mL
[3]; [10]
  %Accuracy: 98.12%
  Measured concentration: 883.06 ± 16.19 ng/mL
[3]; [11]
  %Accuracy: 102.61%
  Measured concentration: 2.57 ± 0.12 ng/mL
[3]; [12]
  %Accuracy: 97.12%
  Measured concentration: 485.59 ± 17.11 ng/mL
[3]; [13]
  %Accuracy: 98.43%
  Measured concentration: 885.84 ± 17.63 ng/mL
[3]; [14]
  %Accuracy: 98.11%
  Measured concentration: 2.45 ± 0.19 ng/mL
[3]; [15]
  %Accuracy: 94.85%
  Measured concentration: 474.29 ± 22.98 ng/mL
[3]; [16]
  %Accuracy: 98.96%
  Measured concentration: 890.60 ± 51.25 ng/mL
[4]; [5]
  %Accuracy: 93.80%
  Measured concentration: 2.35 ± 0.08 ng/mL
[4]; [6]
  %Accuracy: 92.94%
  Measured concentration: 464.68 ± 10.80 ng/mL
[4]; [7]
  %Accuracy: 101.12%
  Measured concentration: 910.07 ± 23.86 ng/mL
[4]; [8]
  %Accuracy: 93.48%
  Measured concentration: 2.34 ± 0.16 ng/mL
[4]; [9]
  %Accuracy: 89.13%
  Measured concentration: 445.65 ± 10.92 ng/mL
[4]; [10]
  %Accuracy: 94.77%
  Measured concentration: 852.94 ± 7.53 ng/mL
[4]; [11]
  %Accuracy: 96.03%
  Measured concentration: 2.40 ± 0.15 ng/mL
[4]; [12]
  %Accuracy: 89.94%
  Measured concentration: 449.68 ± 2.36 ng/mL
[4]; [13]
  %Accuracy: 101.81%
  Measured concentration: 916.25 ± 29.10 ng/mL
[4]; [14]
  %Accuracy: 97.15%
  Measured concentration: 2.43 ± 0.07 ng/mL
[4]; [15]
  Measured concentration: 461.15 ± 18.24 ng/mL
[4]; [16]
  %Accuracy: 102.82%
  Measured concentration: 925.37 ± 32.74 ng/mL

## C=C1CC[C@@H]2[C@](C)(CO)[C@H](O)CC[C@@]2(C)[C@@H]1/C=C/C1=CCOC1=O [AP3, 14-deoxy-11, 12-didehydroandrographolide]
[1]
  Route of excretion: primarily excreted renally
[2]
  Cmax: 83.8 ± 22.2 ng/mL
  AUC(0-t): 309 ± 59 ng·h/mL
  Vd/F: 0.73 ± 0.1 L/kg
  Tmax: 1.5 h
  half-life: 1.38 h
[2]; plasma, single oral dose of extract
  AUC of both conjugated metabolites compared to the respective parent compounds: greater
[3]; [5]
  %Accuracy: 102.35%
  Measured concentration: 2.56 ± 0.21 ng/mL
[3]; [6]
  %Accuracy: 93.25%
  Measured concentration: 466.24 ± 38.67 ng/mL
[3]; [7]
  %Accuracy: 98.75%
  Measured concentration: 888.74 ± 16.64 ng/mL
[3]; [8]
  %Accuracy: 87.13%
  Measured concentration: 2.18 ± 0.05 ng/mL
[3]; [9]
  %Accuracy: 94.32%
  Measured concentration: 471.59 ± 4.35 ng/mL
[3]; [10]
  %Accuracy: 98.11%
  Measured concentration: 883.01 ± 16.08 ng/mL
[3]; [11]
  %Accuracy: 97.41%
  Measured concentration: 2.44 ± 0.04 ng/mL
[3]; [12]
  %Accuracy: 94.34%
  Measured concentration: 471.70 ± 15.57 ng/mL
[3]; [13]
  %Accuracy: 100.12%
  Measured concentration: 901.09 ± 11.50 ng/mL
[3]; [14]
  %Accuracy: 97.61%
  Measured concentration: 2.44 ± 0.04 ng/mL
[3]; [15]
  %Accuracy: 94.40%
  Measured concentration: 472.00 ± 19.37 ng/mL
[3]; [16]
  %Accuracy: 98.65%
  Measured concentration: 887.83 ± 21.04 ng/mL
[4]; [5]
  %Accuracy: 93.92%
  Measured concentration: 2.35 ± 0.10 ng/mL
[4]; [6]
  %Accuracy: 91.91%
  Measured concentration: 459.54 ± 15.54 ng/mL
[4]; [7]
  %Accuracy: 100.19%
  Measured concentration: 901.72 ± 35.81 ng/mL
[4]; [8]
  %Accuracy: 94.28%
  Measured concentration: 2.36 ± 0.06 ng/mL
[4]; [9]
  %Accuracy: 90.36%
  Measured concentration: 451.82 ± 15.00 ng/mL
[4]; [10]
  %Accuracy: 98.18%
  Measured concentration: 883.61 ± 32.83 ng/mL
[4]; [11]
  %Accuracy: 93.61%
  Measured concentration: 2.34 ± 0.11 ng/mL
[4]; [12]
  %Accuracy: 90.33%
  Measured concentration: 451.66 ± 9.81 ng/mL
[4]; [13]
  %Accuracy: 100.28%
  Measured concentration: 902.47 ± 52.60 ng/mL
[4]; [14]
  %Accuracy: 94.35%
  Measured concentration: 2.36 ± 0.07 ng/mL
[4]; [15]
  %Accuracy: 90.63%
  Measured concentration: 453.16 ± 19.26 ng/mL
[4]; [16]
  %Accuracy: 101.88%
  Measured concentration: 916.89 ± 26.49 ng/mL
